Results as given in article PMC9574860, “Chemical Toolkit for PARK7: Potent, Selective, and High-Throughput” (Journal of Medicinal Chemistry, 2022).
Where two headings read alike, the source gives them in different places.

Molecular target: T1, PARK7 (Homo sapiens, UniProt Q99497)
T1 sequence (Q99497 1-189): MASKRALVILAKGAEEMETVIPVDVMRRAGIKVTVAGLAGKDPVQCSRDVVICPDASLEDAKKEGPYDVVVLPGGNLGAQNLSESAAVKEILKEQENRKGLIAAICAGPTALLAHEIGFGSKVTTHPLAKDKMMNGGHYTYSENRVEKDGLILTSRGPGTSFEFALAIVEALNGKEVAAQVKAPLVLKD
Test: FP assay with Rhodamine110 probe JYQ-107 (IC50 and hit validation)
Format: binding
Design: GST (N, cleaved yes); made in house; host or cells: E. coli BL21(DE3) Rosetta2
Settings: for inhibition at 12.5 µM: read-out: FP assay %Inhibiton (12.5 µM); for inhibition at 37.5 µM: read-out: FP assay %Inhibiton (37.5 µM); for inhibition at 100 µM: read-out: FP assay %Inhibiton (100 µM)
Description: The assay was performed using the conditions as described above with a reaction volume of 20 μL per well in triplicate. Stock solutions of JYQ-88 of 1 and 0.1 mM were prepared. […] The FP signal was monitored with a BMG Labtech PHERAstar plate reader (λex/em 480/520 nm) for 2 h.
The validation was performed using the conditions as described above with a reaction volume of 20 μL per well in triplicate. […] The FP signal was monitored with a BMG Labtech PHERAstar plate reader (λex/em 480/520 nm) for 2 h. The relative loss of FP signal compared with reference controls was used to calculate the remaining enzyme activity. Inhibition percentage of these 40 compounds was plotted as a heatmap using GraphPad Prism 9.0.1 software. Color gradients indicate inhibition percentage, no inhibiton (white) and full inhibition (blue).

[1] = 12.5 µM compound, PARK7 0.2 μM, 1 h preincubation, JYQ-107 20 nM
[2] = 37.5 µM compound, PARK7 0.2 μM, 1 h preincubation, JYQ-107 20 nM
[3] = 100 µM compound, PARK7 0.2 μM, 1 h preincubation, JYQ-107 20 nM

Structure (SMILES)	inhibition at 12.5 µM [1]	inhibition at 37.5 µM [2]	inhibition at 100 µM [3]	further results
O=C(NCCCS(=O)(=O)F)c1cccs1 [Z3267389796]	–	–	–	FP assay %Inhibiton (12.5 µM) [1]: 83.1%; FP assay %Inhibiton (37.5 µM) [2]: 80.1%; FP assay %Inhibiton (100 µM) [3]: 100.0%
O=C(CCl)c1ccccn1 [Z1954803958]	0%	0%	23.5%	–
O=C(CCl)c1ccc(F)c(Cl)c1 [Z2492395560]	20.7%	37.4%	88.1%	–
O=[N+]([O-])c1ccc(C(F)(F)F)c(S(=O)(=O)F)c1 [Z3396482545]	–	–	–	FP assay %Inhibiton (12.5 µM) [1]: 36.7%; FP assay %Inhibiton (37.5 µM) [2]: 36.2%; FP assay %Inhibiton (100 µM) [3]: 92.4%
O=C1CCC(CC(=O)Nc2cccc(S(=O)(=O)F)c2)CC1 [Z1832812448]	–	–	–	inhibition at 12.5 µM: 0%; inhibition at 37.5 µM: 0%; inhibition at 100 µM: 0%
O=C(CCl)Nc1ccc(SC(F)F)cc1 [Z56896308]	62.4%	65.9%	100%	–
O=C(CCl)Nc1ccc(N2CCCCCC2)cc1 [Z190662892]	84.2%	85.1%	100%	–
Cc1cc(C(=O)CCl)c(C)[nH]1 [Z235333089]	11.4%	16.2%	54.4%	–
COC(=O)Nc1ccc(S(=O)(=O)F)cc1[N+](=O)[O-] [Z1741956298]	–	–	–	FP assay %Inhibiton (12.5 µM) [1]: 72.6%; FP assay %Inhibiton (37.5 µM) [2]: 75.8%; FP assay %Inhibiton (100 µM) [3]: 100.0%
Cn1c(=O)ccn(CC(=O)Nc2cccc(S(=O)(=O)F)c2)c1=O [Z1713568698]	–	–	–	inhibition at 12.5 µM: 80.3%; inhibition at 37.5 µM: 78.2%; inhibition at 100 µM: 100%
O=C(CCl)c1cscn1 [Z2491497305]	4.5%	7.6%	51.6%	–
COc1ccccc1CN(C)C(=O)CCl [Z57051055]	68.3%	66.1%	100%	–
O=C(Nc1cccc(S(=O)(=O)F)c1)C1CCCC1 [Z1713569513]	–	–	–	FP assay %Inhibiton (12.5 µM) [1]: 67.6%; FP assay %Inhibiton (37.5 µM) [2]: 76.9%; FP assay %Inhibiton (100 µM) [3]: 100.0%
COc1ccc(NS(=O)(=O)c2ccc(S(=O)(=O)F)cc2)cn1 [Z1672273218]	–	–	–	inhibition at 12.5 µM: 79.5%; inhibition at 37.5 µM: 83.8%; inhibition at 100 µM: 100%
CC(c1ccccc1)N(C)C(=O)CCl (stereo not drawn) [Z86023354]	88.4%	89.7%	100%	–
NC(=O)c1csc(C(=O)CCl)c1 [Z802671642]	23.8%	25.8%	68%	–
CC(c1ccc(Cl)cc1)N(C)C(=O)CCl (stereo not drawn) [Z1562123076]	79.5%	81.3%	100%	–
CCc1ccc(NC(=O)CCl)cc1 [Z56886400]	90.8%	95.6%	100%	–
